Laboratory results from ChEMBL document CHEMBL1201862, “PubChem BioAssay data set” (2004).
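All cell lines were grown in 96-well plates and treated with compound for 48 hours. GI50 = concentration required for 50% inhibition of growth.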 Active and inactive are the calls of the source. Cut-off read from the data, not from the text of the source: active = GI50 up to about 1.1 µM and inactive = higher.

Experiments:
Assay in all cases: growth of human tumour cells (NCI), 48 h
[1] = system: HCC 2998
[2] = system: HT-29
[3] = system: MOLT-4
[4] = system: SF-539
[5] = system: SNB-78
[6] = system: EKVX
[7] = system: UACC-257
[8] = system: NCI-H23
[9] = system: DMS-114
[10] = system: UACC-62
[11] = system: LOX IMVI
[12] = system: Malme-3M
[13] = system: NCI-H460
[14] = system: HL-60
[15] = system: CAKI-1
[16] = system: IGROV-1
[17] = system: SK-MEL-5
[18] = system: NCI-H226
[19] = system: MDA-N
[20] = system: BT-549

Row | SMILES | GI50 [1] | GI50 [2] | GI50 [3] | GI50 [4] | GI50 [5] | GI50 [6] | GI50 [7] | GI50 [8] | GI50 [9] | GI50 [10] | GI50 [11] | GI50 [12] | GI50 [13] | GI50 [14] | GI50 [15] | GI50 [16] | GI50 [17] | GI50 [18] | GI50 [19] | GI50 [20]
1 | CC1=NOC(=O)/C1=C/c1cccc2ccccc12 | > 100 µM (inactive) | > 100 µM (inactive) | > 100 µM (inactive) | > 100 µM (inactive) | > 100 µM (inactive) | > 100 µM (inactive) | > 100 µM (inactive) | > 100 µM (inactive) | > 100 µM (inactive) | > 100 µM (inactive) | > 100 µM (inactive) | > 100 µM (inactive) | > 100 µM (inactive) | > 100 µM (inactive) | > 100 µM (inactive) | > 100 µM (inactive) | > 100 µM (inactive) | > 100 µM (inactive) | – | –
2 | Cc1ccccc1NC(=O)C(=O)CC(=O)C1CCOC1=O (stereo not drawn) | > 100 µM (inactive) | > 10 µM (inactive) | – | > 100 µM (inactive) | > 100 µM (inactive) | > 100 µM (inactive) | > 100 µM (inactive) | > 100 µM (inactive) | > 100 µM (inactive) | > 100 µM (inactive) | > 100 µM (inactive) | > 100 µM (inactive) | > 100 µM (inactive) | > 100 µM (inactive) | > 100 µM (inactive) | > 100 µM (inactive) | > 100 µM (inactive) | > 100 µM (inactive) | – | –
3 | Cn1ccnc1C(c1nccn1C)C(C)(C)[N+](=O)[O-] | > 100 µM (inactive) | – | > 100 µM (inactive) | > 100 µM (inactive) | > 100 µM (inactive) | > 100 µM (inactive) | > 100 µM (inactive) | – | > 100 µM (inactive) | 12.4 µM (inactive) | > 100 µM (inactive) | – | > 100 µM (inactive) | > 100 µM (inactive) | > 100 µM (inactive) | – | > 100 µM (inactive) | – | – | –
4 | O=C(CCN1CCCCC1)C(=Cc1ccccc1)C(=O)CCN1CCCCC1 | > 100 µM (inactive) | 6.68 µM (inactive) | 18.6 µM (inactive) | 49.8 µM (inactive) | > 62.5 µM (inactive) | > 100 µM (inactive) | 6.75 µM (inactive) | > 59.8 µM (inactive) | 2.77 µM (inactive) | 31.4 µM (inactive) | 38.7 µM (inactive) | > 10 µM (inactive) | > 100 µM (inactive) | 21.7 µM (inactive) | 2.45 µM (inactive) | > 100 µM (inactive) | > 100 µM (inactive) | > 100 µM (inactive) | – | –
5 | COc1ccc(/C=C(\NC(=O)c2ccccc2)c2nc3ccccc3[nH]2)cc1OC | > 100 µM (inactive) | > 100 µM (inactive) | 79.1 µM (inactive) | > 100 µM (inactive) | > 100 µM (inactive) | > 100 µM (inactive) | > 100 µM (inactive) | > 100 µM (inactive) | > 100 µM (inactive) | > 100 µM (inactive) | > 100 µM (inactive) | > 100 µM (inactive) | > 100 µM (inactive) | > 100 µM (inactive) | > 100 µM (inactive) | > 100 µM (inactive) | > 100 µM (inactive) | > 100 µM (inactive) | – | –
6 | CCOC(=O)/C(=C\c1ccc(N(CCC#N)CCC#N)cc1C)NC(=O)/C=C/c1ccccc1 | 62.2 µM (inactive) | > 100 µM (inactive) | > 100 µM (inactive) | > 100 µM (inactive) | > 100 µM (inactive) | > 100 µM (inactive) | > 100 µM (inactive) | > 100 µM (inactive) | > 100 µM (inactive) | > 100 µM (inactive) | > 100 µM (inactive) | > 100 µM (inactive) | > 100 µM (inactive) | > 100 µM (inactive) | > 100 µM (inactive) | > 100 µM (inactive) | > 100 µM (inactive) | 96.2 µM (inactive) | – | –
7 | Cn1ncc2c(Nc3ccc(Cl)cc3)c3ccccc3nc21 | 22.9 µM (inactive) | 13.5 µM (inactive) | 11.4 µM (inactive) | 15.6 µM (inactive) | 24.4 µM (inactive) | > 10 µM (inactive) | 17.3 µM (inactive) | > 10 µM (inactive) | 13.4 µM (inactive) | 15.1 µM (inactive) | 15.1 µM (inactive) | 20.2 µM (inactive) | 18.7 µM (inactive) | 23.4 µM (inactive) | 21.8 µM (inactive) | 21.2 µM (inactive) | 13.6 µM (inactive) | 17.3 µM (inactive) | – | –
8 | Cc1ccc(-c2nnc(SCC(=O)O)[nH]2)cc1 | > 100 µM (inactive) | > 100 µM (inactive) | > 100 µM (inactive) | > 100 µM (inactive) | > 100 µM (inactive) | > 100 µM (inactive) | > 100 µM (inactive) | > 100 µM (inactive) | > 100 µM (inactive) | > 100 µM (inactive) | – | > 100 µM (inactive) | > 100 µM (inactive) | > 100 µM (inactive) | > 100 µM (inactive) | > 100 µM (inactive) | > 100 µM (inactive) | > 100 µM (inactive) | – | –
9 | C/C1=C/C2OC(=O)C3(C)C2C(CC2(C)OC1=CC2=O)OC3(O)C(C)C (stereo not drawn) | 20.9 µM (inactive) | 28.3 µM (inactive) | 29.4 µM (inactive) | 41.4 µM (inactive) | 35.2 µM (inactive) | 47.6 µM (inactive) | 26.9 µM (inactive) | 15 µM (inactive) | 14.3 µM (inactive) | 20.6 µM (inactive) | 31.4 µM (inactive) | 33.5 µM (inactive) | 42.5 µM (inactive) | 18.7 µM (inactive) | 30.5 µM (inactive) | 35.3 µM (inactive) | 23.6 µM (inactive) | 33.5 µM (inactive) | 53.7 µM (inactive) | 5.2 µM (inactive)
10 | CC[C@H](C)N(CCN)C(=O)c1cc2ccccc2c(-c2ccccc2Cl)n1 | 2.72 µM (inactive) | 7.74 µM (inactive) | 7.31 µM (inactive) | 2.15 µM (inactive) | 14.3 µM (inactive) | 11.5 µM (inactive) | 1.91 µM (inactive) | 12.8 µM (inactive) | 13.9 µM (inactive) | 10.8 µM (inactive) | 14.3 µM (inactive) | – | 14.1 µM (inactive) | 7.67 µM (inactive) | 5.57 µM (inactive) | 8.09 µM (inactive) | – | 15 µM (inactive) | – | –
11 | C#Cc1cccc(N2C(=O)CCC2=O)c1 | 15 µM (inactive) | 12.1 µM (inactive) | 2.77 µM (inactive) | 21.5 µM (inactive) | 18.5 µM (inactive) | 18.3 µM (inactive) | 15.6 µM (inactive) | 14.7 µM (inactive) | 14.8 µM (inactive) | 18.2 µM (inactive) | 16.8 µM (inactive) | 14.7 µM (inactive) | 27.5 µM (inactive) | 2.25 µM (inactive) | 13.6 µM (inactive) | 21.5 µM (inactive) | 20.5 µM (inactive) | 17.5 µM (inactive) | 14.2 µM (inactive) | > 10 µM (inactive)
12 | Clc1cccc(Cl)c1C1SCc2nc3ccccc3n21 (stereo not drawn) | > 100 µM (inactive) | 43.9 µM (inactive) | 19.1 µM (inactive) | > 100 µM (inactive) | > 100 µM (inactive) | 78.3 µM (inactive) | 21.1 µM (inactive) | > 100 µM (inactive) | 25.2 µM (inactive) | 50.1 µM (inactive) | > 100 µM (inactive) | > 100 µM (inactive) | 48.6 µM (inactive) | 3.97 µM (inactive) | > 100 µM (inactive) | 37.2 µM (inactive) | 9.04 µM (inactive) | > 100 µM (inactive) | – | –
13 | Cn1cnc([N+](=O)[O-])c1Sc1nc2ccccc2[nH]1 | 12.3 µM (inactive) | 27.7 µM (inactive) | 6.87 µM (inactive) | 14.2 µM (inactive) | 13.2 µM (inactive) | 14.1 µM (inactive) | 15.1 µM (inactive) | 19.1 µM (inactive) | 8.26 µM (inactive) | – | 22.7 µM (inactive) | 16.3 µM (inactive) | 22.4 µM (inactive) | 9.29 µM (inactive) | 3.68 µM (inactive) | 13.9 µM (inactive) | 13.1 µM (inactive) | 28.7 µM (inactive) | – | –
14 | C/C1=C\[C@@H](O)C(=O)/C=C/C=C\c2csc(n2)[C@@H](C)NC(=O)C[C@@]2(CC1)[S+]([O-])SC(=O)[C@]2(C)O (stereo partly drawn) [LEINAMYCIN] | 0.184 µM (active) | 0.04 µM (active) | 0.00486 µM (active) | 0.00968 µM (active) | 0.01 µM (active) | 0.261 µM (active) | 0.0298 µM (active) | 0.00594 µM (active) | 0.0353 µM (active) | 0.0124 µM (active) | 0.0116 µM (active) | 0.00656 µM (active) | 0.00986 µM (active) | 0.000752 µM (active) | 0.00133 µM (active) | 0.2 µM (active) | 0.00673 µM (active) | 0.206 µM (active) | 0.0101 µM (active) | 0.00151 µM (active)
